In patent publication US7452717B2, “Compositions and methods for sensitizing and inhibiting growth of human tumor cells” (St. Jude Children's Research Hospital, priority 1998, dated 2008):
“Also recorded” adds a separate entry of the source. Where two headings read alike, the source gives them in different places.

Key:
human NB-1691 xenografts = experiment: NB-1691 xenograft model for MRD; assay type: in vivo, mice; conditions: 10 mg/kg CPT-11 daily for 5 days on two consecutive weeks
Source text: However, within 4-6 weeks, tumors are palpable in the exact position where the original xenograft was implanted. Since these tumors arise from cells that survived the initial cycle of chemotherapy, this model therefore mimics results seen in patients following surgical resection of the primary tumor and subsequent regrowth at the same site.

[1] = tested on: Cos7 cells expressing rabbit liver CE; experiment: Cell survival of Cos7 cells transiently transfected with rabbit CE (pCIRABFL); assay type: cell-based, monkey; conditions: control Cos7 cells versus Cos7 cells transfected with CE
Source text: To confirm that the cDNA encoded CE, the 1.7 kb EcoRI fragment was ligated into pCIneo to generate pCIRABFL and the plasmid transiently transfected into Cos7 cells. pCIneo contains the SV40 origin of replication allowing plasmid amplification in cells expressing the large T antigen, such as Cos7.

pig liver CE = experiment: CPT-11 metabolism by commercially available pig liver CE; conditions: commercially available partially purified pig liver CE
Source text: (§1) This screening included enzymes from a series of sera, cell extracts and commercially available CEs using a rapid fluorometric assay.

rabbit liver CE [2] = biological target: rabbit liver CE (Oryctolagus cuniculus, UniProt P12337); conditions: commercially available partially purified rabbit liver CE
Source text: as §1

[3] = tested on: CEs purified from human tissues; conditions: cited from earlier work
[4] = tested on: Rh30pIRESrabbit xenografts (expressing rabbit CE); experiment: Rh30pIRESrabbit rhabdomyosarcoma xenografts in SCID mice; assay type: in vivo; conditions: 2.5 mg CPT-11/kg/day, 5 days/week for 2 weeks, every 21 days, three cycles
Method: (§2) The tumor growth rate is depicted on the Y-axis of each graph in terms of tumor volume and is plotted as a function of time in weeks (X-axis).
(§3) In this preclinical model, expression of the transfected cDNA for rabbit CE was maintained for at least 12 weeks.
(§4) Experiments were performed in this model to compare the responses of mice bearing human Rh30 and Rh30pIRESrabbit xenografts. Rh30 rhabdosarcoma xenografts were transfected with pIRESneo plasmid containing the cDNA for rabbit liver CE and selected with G418. Expression of CE was confirmed by biochemical assay using the CE substrate o-NPA and maintained for at least 12 weeks. Two groups of SCID mice were then injected with the transfected Rh30pIRESrabbit cells subcutaneously into the flanks. A third group of control mice was injected in identical fashion with Rh30 cells not transfected with the plasmid.

Rh18 RMS xenografts = conditions: cited from earlier work
human liver CE (hCE1) = biological target: T1, human liver CE (hCE1) (Homo sapiens, UniProt P23141); experiment: CPT-11 conversion assay, COS-7 cells expressing hCE1; assay type: in vitro ADME; conditions: plasmid pCIHUMCAR, enzyme hCE1
T1 construct: expressed in transfected cells; host or cells: COS-7 (sonicates of transiently transfected cells)

[5] = tested on: U373 glioblastoma xenografts transfected with control plasmid; experiment: U373 glioblastoma xenografts with control plasmid in SCID mice; assay type: in vivo; conditions: U373 xenografts with control plasmid (no rabbit CE), CPT-11 7.5 mg/kg/day, three cycles
Source text: (§5) The tumor growth rate is depicted on the Y-axis in terms of tumor volume and is plotted as a function of time in weeks (X-axis). Open circles depict the tumor volume of untreated U373 xenografts expressing rabbit CE. Filled triangles depict the response of control xenografts (no rabbit CE) treated with CPT-11. Filled squares depict the response of cells expressing rabbit CE and treated with CPT-11. […] Each point represents the mean of 14 tumors in 7 individual mice.
(§6) Similar studies were performed employing U373 glioblastoma cells transfected with the pIRESneo plasmid or with pIRESneo containing the cDNA for rabbit liver CE and selected with G418. Expression of CE in the tumor cells was confirmed by biochemical assay using the substrate o-NPA. Cells were injected subcutaneously into the flanks of the SCID mice.

Rh30 xenografts = experiment: Rh30 rhabdomyosarcoma xenografts (no CE) in SCID mice; assay type: in vivo; conditions: Rh30 xenografts not expressing CE, 2.5 mg CPT-11/kg/day, 5 days/week for 2 weeks, every 21 days, three cycles
Method: as §2, §3, §4

[6] = tested on: COS-7 cells transfected with the parent plasmid; experiment: Growth inhibition, COS-7 cells transfected with parent plasmid; assay type: cell-based, monkey; conditions: Primates, read-out: IC50 (CPT-11); COS-7 cells transfected with the parent plasmid (pCEneo)
Method: (§7) Growth inhibition assays were performed with COS-7 cells as previously described (Potter et al. 1998 Cancer Res. 52:2646-2651; Danks et al. 1998 Cancer Res. 52:2646-2651,1998). Forty-eight hours after transfection, 5×10^4 cells were plated into 1.5 cm diameter dishes and allowed to attach overnight. […] Cell number was determined by counting using a Coulter Multisyser II (Coulter Electronics, Luton, England) and growth inhibition curves were plotted using Prism software (GraphPad Software Inc., San Diego, Calif.).

rabbit liver CE [7] = biological target: T2, rabbit liver CE (Oryctolagus cuniculus, UniProt P12337); assay type: in vitro ADME; set-up: To amplify a full length rabbit CE cDNA, oligonucleotide primers RabNTERM; expressed in transfected cells; host or cells: COS-7 (sonicates of transiently transfected cells); conditions: COS-7 cells, plasmid pCIRAB, enzyme rabbit
T2 sequence (P12337 19-565): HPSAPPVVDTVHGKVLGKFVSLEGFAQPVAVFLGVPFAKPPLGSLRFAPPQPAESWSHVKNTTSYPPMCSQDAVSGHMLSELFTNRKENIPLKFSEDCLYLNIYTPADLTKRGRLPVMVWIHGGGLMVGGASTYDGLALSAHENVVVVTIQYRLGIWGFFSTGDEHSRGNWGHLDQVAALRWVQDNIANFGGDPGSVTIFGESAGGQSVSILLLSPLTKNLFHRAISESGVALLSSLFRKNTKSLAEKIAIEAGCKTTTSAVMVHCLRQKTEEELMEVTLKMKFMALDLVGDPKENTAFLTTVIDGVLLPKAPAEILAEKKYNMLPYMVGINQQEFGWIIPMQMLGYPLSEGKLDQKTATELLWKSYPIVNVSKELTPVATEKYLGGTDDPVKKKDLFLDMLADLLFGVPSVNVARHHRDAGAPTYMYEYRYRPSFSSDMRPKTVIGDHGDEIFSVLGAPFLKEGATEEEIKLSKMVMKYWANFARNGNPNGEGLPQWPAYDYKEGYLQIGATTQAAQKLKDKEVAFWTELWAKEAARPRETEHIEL

Rh30 cells = experiment: Growth inhibition of Rh30 cells by CPT-11 pre-incubated with rabbit liver CE; assay type: cell-based, human
Source text: Another aspect of the present invention relates to the ability of compositions comprising a polynucleotide encoding a carboxylesterase and a disease-specific responsive promoter of selected tumor cells to sensitize the tumor cells to a chemotherapeutic prodrug. The ability of a rabbit CE or a human intestinal CE of the present invention to sensitize human tumor cells to CPT-11 was examined. Experiments were first performed to confirm that the metabolite produced by the activity of a CE of the present invention is biologically active in vitro. Rh30 cells were exposed to the products of each reaction for one hour and the percentage of growth inhibition was determined. […] Similar confirmatory experiments were performed with COS-7 cells.
Each reaction mixture was then filter-sterilized and Rh30 cells were exposed to drug for one hour, at which time the medium was replaced with drug-free medium containing serum. […] Cells were allowed to grow for 3 cell doubling times and cell numbers were determined.

[8] = tested on: COS-7 cells expressing hiCE; experiment: Growth inhibition, COS-7 cells expressing hiCE; assay type: cell-based, monkey; conditions: Primates, read-out: IC50 (CPT-11), 2 h exposure, three days growth
Method: as §7

[9] = tested on: U373 glioblastoma xenografts expressing rabbit liver CE; experiment: U373 glioblastoma xenografts expressing rabbit CE in SCID mice; assay type: in vivo; conditions: CPT-11 7.5 mg/kg/day, three cycles
Source text: as §5, §6

topoisomerase I = topoisomerase I (Homo sapiens, UniProt P11387); conditions: cited from earlier work
[10] = in humans; cited from earlier work
rabbit liver CE [11] = biological target: T2, rabbit liver CE; assay type: biochemical; set-up: To amplify a full length rabbit CE cDNA, oligonucleotide primers RabNTERM; expressed in transfected cells; conditions: in vitro, rabbit CE (FIG. 6)
Source text: FIG. 6 is a linegraph showing the conversion of APC, depicted on the X-axis at nanomolar concentrations, to SN-38, depicted on the Y-axis at nanomolar concentrations, in vitro by the activity of rabbit liver CE given at doses of 0 (filled cross), 10 (filled hexagon), 25 (filled triangle), 50 (filled circle) or 100 (filled square) units. Data presented represent the mean response at each dose level.
(§8) No known human enzyme activates APC. […] Thus, the combination of APC and sensitization of selected tumor cells with rabbit liver CE as described above can be used to produce a tumor-specific cell death while greatly minimizing the toxic side effects associated with administration of chemotherapy.

[12] = tested on: U-373 glioma cells expressing rabbit liver CE; experiment: Growth inhibition by APC, U-373 glioma cells expressing rabbit liver CE; assay type: cell-based, human; conditions: U-373 cells expressing rabbit liver CE, 2 h exposure (FIG. 7)
Method: FIG. 7 is a linegraph showing a comparison of the sensitization, depicted as % survival on the Y-axis, of U-373 glioma cells exposed to APC, depicted as log[APC] at concentrations from 10^−8 to 10^−5 M on the X-axis, from in situ expression of rabbit liver CE (filled squares) and human alveolar macrophage CE (filled circles). Cells were exposed for 2 hours to APC.
as §8

Chain of topoisomerase I (P11387 whole entry): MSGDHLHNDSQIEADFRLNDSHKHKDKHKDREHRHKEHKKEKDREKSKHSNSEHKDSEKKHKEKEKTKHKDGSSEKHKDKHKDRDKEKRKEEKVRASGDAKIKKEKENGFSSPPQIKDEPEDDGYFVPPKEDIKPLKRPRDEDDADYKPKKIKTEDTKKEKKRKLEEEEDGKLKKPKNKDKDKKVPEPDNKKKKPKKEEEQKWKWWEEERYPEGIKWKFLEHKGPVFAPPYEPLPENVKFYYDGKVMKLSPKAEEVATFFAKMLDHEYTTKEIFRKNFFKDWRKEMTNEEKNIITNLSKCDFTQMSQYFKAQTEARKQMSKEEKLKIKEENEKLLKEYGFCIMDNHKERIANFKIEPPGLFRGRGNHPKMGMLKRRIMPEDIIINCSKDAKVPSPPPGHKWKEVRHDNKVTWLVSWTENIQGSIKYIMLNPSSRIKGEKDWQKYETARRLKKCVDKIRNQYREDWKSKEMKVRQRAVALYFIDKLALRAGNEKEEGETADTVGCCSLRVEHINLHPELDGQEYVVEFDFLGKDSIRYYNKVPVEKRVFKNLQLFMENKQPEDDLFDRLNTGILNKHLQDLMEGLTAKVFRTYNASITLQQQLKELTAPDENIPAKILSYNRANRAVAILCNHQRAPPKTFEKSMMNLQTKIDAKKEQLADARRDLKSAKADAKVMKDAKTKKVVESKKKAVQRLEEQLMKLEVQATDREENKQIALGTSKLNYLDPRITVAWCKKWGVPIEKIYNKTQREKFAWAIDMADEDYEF
T1 sequence (P23141 18-567): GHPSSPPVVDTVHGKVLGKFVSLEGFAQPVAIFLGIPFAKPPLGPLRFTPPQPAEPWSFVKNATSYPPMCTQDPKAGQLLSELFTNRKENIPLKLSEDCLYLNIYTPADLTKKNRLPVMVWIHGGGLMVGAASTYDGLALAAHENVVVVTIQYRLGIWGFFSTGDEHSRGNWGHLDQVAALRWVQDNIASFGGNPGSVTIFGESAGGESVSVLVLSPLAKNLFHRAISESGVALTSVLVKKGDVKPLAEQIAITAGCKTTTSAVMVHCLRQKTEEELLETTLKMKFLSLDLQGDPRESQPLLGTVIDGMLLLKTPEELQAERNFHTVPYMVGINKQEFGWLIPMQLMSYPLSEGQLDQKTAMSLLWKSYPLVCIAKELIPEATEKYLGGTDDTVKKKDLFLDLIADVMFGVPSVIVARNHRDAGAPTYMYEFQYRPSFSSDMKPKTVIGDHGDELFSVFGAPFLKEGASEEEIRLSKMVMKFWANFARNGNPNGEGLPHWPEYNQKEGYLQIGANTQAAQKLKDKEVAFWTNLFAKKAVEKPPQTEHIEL

Structure (SMILES): CCc1c2c(nc3ccc(OC(=O)N4CCC(N5CCCCC5)CC4)cc13)-c1cc3c(c(=O)n1C2)COC(=O)[C@]3(O)CC [CPT-11, 7-ethyl-10-[4-(1-piperidino)-1-piperidino]carbonyloxycamptothecin]
- time until tumors are palpable again at the original site (human NB-1691 xenografts): 4-6 weeks
- tumor response (human NB-1691 xenografts): complete regression of the tumor
- difference in sensitivity to CPT-11 (% cell survival, FIG. 5) [1]: approximately 350 fold
- metabolism of CPT-11 (pig liver CE): metabolized CPT-11 efficiently
- metabolism of CPT-11 (rabbit liver CE [2]): metabolized CPT-11 efficiently
- prodrug converted to active drug (SN-38) [3]: less than 5%
- tumor response [4]: regressed completely and did not regrow during the 12 weeks of the study; also recorded: complete tumor regression, even out to 12 weeks
- tumor response (Rh18 RMS xenografts; 10 mg/kg/day, same schedule): only partial tumor regression
- tumor response (Rh18 RMS xenografts; 20 mg of CPT-11/kg/day daily for 5 days for two weeks): complete regression
- CPT-11 Conversion (human liver CE (hCE1)): 9.6 pmol/h/mg
- tumor response [5]: stable disease with no significant regression; also recorded: stable disease but no significant regression
- tumor response (Rh30 xenografts): regressed only transiently, regrowing within one week after CPT-11 treatment had stopped; also recorded: initial regression but regrowth; also recorded: regressed only transiently with CPT-11 treatment, with regrowth occurring within one week after CPT-11 treatment stopped
- IC50 [6]: 5400 nM
- CPT-11 Conversion (rabbit liver CE [7]): 2323.0 pmol/h/mg
- inhibition at 1 µM (Rh30 cells; Homo sapiens, Rh30, 1 h, read-out: inhibition of cell growth): 30 to 60%
- inhibition of cell growth (Rh30 cells; Rh30 cells, 1 to 5 units of CE inactivated by heating): no inhibition of cell growth
- IC50 [8]: 500 nM
- tumor response [9]: regressed completely; also recorded: tumor regression was seen only in treated cells expressing rabbit CE

Structure (SMILES): CCc1c2c(nc3ccc(O)cc13)-c1cc3c(c(=O)n1C2)COC(=O)[C@]3(O)CC [SN-38, 7-ethyl-10-hydroxy-camptothecin]
- inhibition of topoisomerase I (topoisomerase I): potent inhibitor of topoisomerase I

Structure (SMILES): CCc1c2c(nc3ccc(OC(=O)N4CCC(NCCCCC(=O)O)CC4)cc13)-c1cc3c(c(=O)n1C2)COC(=O)[C@]3(O)CC [APC]
- conversion to an active metabolite [10]: not converted to an active metabolite in humans
- conversion of APC to SN-38 (rabbit liver CE [11]): converted to SN-38 in a concentration-dependent manner
- sensitization to growth inhibitory effects of APC [12]: sensitized to the growth inhibitory effects of APC
